In US20240083933A1, “DISACCHARIDES FOR TREATING BONE DISEASES” (UNIVERSITE DE PICARDIE JULES VERNE, priority 2020, published 2024):
One block for each compound: values may come before it.

Experiments:
[1] = tested on: MC3T3-E1 cells; test: Calcium assay (pro-calcifying activity) on mouse pre-osteoblastic cells; format: cell-based; conditions: for production of calcium by the MC3T3-E1 cells (calcium dosage in culture medium): 9 days, 4 mM Pi, 30 μM compound, vs control+Pi (FIG. 1); for increase in calcification relative to the mineralizing medium: MC3T3-E1, 25 days
Protocol: FIG. 1 represents the calcium dosage in the MC3T3-E1 culture medium (in […] of protein per well) after 9 days of exposure of these cells to 4 mM of Pi ([…]) (control+Pi) and 4 mM of Pi in the presence of 30 μM of each of the compounds referenced DP2SNA, DP2NA, DP2K and DP2S;
(§1) For all experiments, a mouse pre-osteoblastic cell line (MC3T3-E1, ATCC) and human primary osteoblastic cells (HOb, Promocell) were used. The mouse pre-osteoblastic cells were cultured in 75 cm^2 flasks, containing 15 mL of α-MEM medium (M4526, SIGMA) and 10% fetal calf serum (FCS), containing 1% Penicillin/Streptomycin antibiotics and 1% glutamine. Similarly, human HOb cells were cultured in 75 cm 2 flasks containing 15 mL of proliferation medium (Human Osteoblast Proliferation Medium, PromoCell). The cells are maintained in the oven at 37° C., with 5% CO2 and 90% humidity. The medium was changed every three days.
(§2) MC3T3-E1 cells were seeded in 6-well plates at 63,700 cells/well to be treated in order to extract RNA or for alkaline phosphatase enzymatic activity assay and in 48-well plates for the calcium assay at 5250 cells/well. The HOb cells were seeded at 182,000 cells/well in 6-well plates for the extraction of RNA or for the alkaline phosphatase enzymatic activity assay; at 15,000 cells/well in 48-well plates for the calcium assay; at 10,000 cells/well in 48-well plates for the MTT test or the WST-1 test and at 100,000 cells/well in 6-well plates for the protein extraction or for the fluorescence.
(§3) In order to induce the mineralization, the MC3T3-E1 cells were treated with α-MEM medium containing 5% FCS to which 10 mM of β-glycerophosphate and 50 μg/mL of ascorbic acid are added. The HOb cells were treated with the “Osteoblast mineralization medium” (Promocell). […] After filtration, the cells were treated with the respective media (500 μL per well of the 48-well plate and 2 mL per well of the 6-well plate).
The release of calcium in the culture medium of mouse pre-osteoblastic cells (MC3T3-E1) has been studied.
An increase in calcification was observed, relative to the mineralizing medium (FIG. 2), in the presence of DP2R0 at 15 μM (40±2%), at 30 μM (28±18%) and at 50 μM (40±28%), and DP2NA at 15 μM (15±14%), at 30 μM (33±12%) and at 50 μM (10±19%).

[2] = tested on: HOb cells; test: Calcium assay (pro-calcifying activity, mineralization) on human primary osteoblastic cells; format: cell-based; conditions: for increase in calcification relative to the mineralizing condition: HOb
Protocol: as §1, §2, §3
The calcification has also been studied on human osteoblastic cells (Hob, PromoCell, Heidelberg, Germany). They are isolated from femoral trabecular bone tissues.

[3] = Acetate migration DP2/DP2′ in solution (stability); format: physicochemical; conditions: water, after 44 days
Protocol: The compound DP2′ was extracted from the DP2-DP2′ mixture which is formed when the compound DP2 is dissolved in water. The compound DP2′ has been separated by preparative HPLC chromatography with water as elution solvent.
The inventors have observed that when the compound DP2′ was in water, the delocalization of the acetate group was also present, but with very slow kinetics compared to the DP2→DP2′ reaction. Thus, a solution of DP2′ in water which is left to rest contains, after 44 days, 10 to 15% of DP2. The DP2′ therefore remains alone in the water for a given duration which is quite long. It is therefore possible to test the biological effect of DP2′ in solution in water.
Similarly, the inventors have observed that the kinetics of the DP2→DP2′ reaction is such that it is also possible to test the biological activity of the compound DP2 alone after extraction of the formed compound DP2′. Thus, the two compounds DP2 and DP2′ can coexist or not in water for a given duration.
In methanol, for example, the compound DP2 is therefore alone.
There is about ⅔ of DP2R2 for ⅓ of DP2′. The compound DP2′ comes from a migration of the acetate group (R2) on the 30H position. The compound DP2′ could be isolated and synthesized as previously indicated. […]

Structure (SMILES): CCCO[C@H]1O[C@H](COS(=O)(=O)[O-])[C@@H](O[C@@H]2O[C@H](CO)[C@@H](O)[C@H](O)[C@H]2NC(C)=O)[C@H](O)[C@H]1OC(C)=O.[Na+] [DP2S, n-propyl, 2-0-acetyl-6-O-sulfo-α-D-Glucopyranoside, 4-O-(2-acetamido-2-desoxy-β-D-glucopyranosyl), monosodium salt]
production of calcium by the MC3T3-E1 cells (calcium dosage in culture medium) [1]: significantly inhibits the expression of calcium

Structure (SMILES): CCCO[C@H]1OC(COS(=O)(=O)[O-])[C@@H](O[C@@H]2OC(CO)[C@@H](O)C(O)C2NC(C)=O)C(O)C1O.[Na+] (stereo partly drawn) [DP2SNA, n-propyl, 6-O-sulfo-α-D-Glucopyranoside, 4-O-(2-acetamido-2-desoxy-β-D-glucopyranosyl), monosodium salt]
production of calcium by the MC3T3-E1 cells (calcium dosage in culture medium) [1]: increase the production of calcium

DP2 content of a solution of DP2′ in water left to rest [3]: 10 to 15%
Structure (SMILES): CCCOC1OC(CO)C(OC2OC(CO)C(O)C(O)C2NC(C)=O)C(OC(C)=O)C1O [DP2′, n-propyl, 3-0-acetyl-α-D-Glucopyranoside, 4-O-(2-acetamido-2-deoxy-β-D-glucopyranosyl)]
percentage of mineralization of the HOb cells ([2]; 14 days, mineralizing conditions, 30 μM): 143.806±36.657%

Structure (SMILES): CCCO[C@H]1OC(CO)[C@@H](O[C@@H]2OC(CO)[C@@H](O)C(O)C2NC(C)=O)C(O)C1O (stereo partly drawn) [DP2NA, n-propyl, α-D-Glucopyranoside, 4-O-(2-acetamido-2-deoxy-β-D-glucopyranosyl)]
production of calcium by the MC3T3-E1 cells (calcium dosage in culture medium) [1]: increase the production of calcium
increase in calcification relative to the mineralizing medium ([1]; 15 μM): 15±14%
increase in calcification relative to the mineralizing medium ([1]; 30 μM): 33±12%
increase in calcification relative to the mineralizing medium ([1]; 50 μM): 10±19%
increase in calcification relative to the mineralizing condition ([2]; 14 days, 15 μM): 45±42%
increase in calcification relative to the mineralizing condition ([2]; 14 days, 30 μM): 44±7%
increase in calcification relative to the mineralizing condition ([2]; 14 days, 50 μM): 35±8%
mineralization of the HOb cells relative to the mineralizing medium alone ([2]; lower concentrations 5, 7.5 and 10 μM (FIG. 4)): decrease in mineralization
